Measured values: ChEMBL document CHEMBL3091364, “Benzyloxybenzylammonium chlorides: Simple amine salts that display anticonvulsant activity” (Bioorg Med Chem, 2013)

Assays:
[1] = target: T1, Muscarinic acetylcholine receptor M5 (Homo sapiens) (UniProt P08912); assay: Inhibition of muscarinergic M5 receptor (unknown origin) at 10 uM relative to control
T1 sequence (whole entry): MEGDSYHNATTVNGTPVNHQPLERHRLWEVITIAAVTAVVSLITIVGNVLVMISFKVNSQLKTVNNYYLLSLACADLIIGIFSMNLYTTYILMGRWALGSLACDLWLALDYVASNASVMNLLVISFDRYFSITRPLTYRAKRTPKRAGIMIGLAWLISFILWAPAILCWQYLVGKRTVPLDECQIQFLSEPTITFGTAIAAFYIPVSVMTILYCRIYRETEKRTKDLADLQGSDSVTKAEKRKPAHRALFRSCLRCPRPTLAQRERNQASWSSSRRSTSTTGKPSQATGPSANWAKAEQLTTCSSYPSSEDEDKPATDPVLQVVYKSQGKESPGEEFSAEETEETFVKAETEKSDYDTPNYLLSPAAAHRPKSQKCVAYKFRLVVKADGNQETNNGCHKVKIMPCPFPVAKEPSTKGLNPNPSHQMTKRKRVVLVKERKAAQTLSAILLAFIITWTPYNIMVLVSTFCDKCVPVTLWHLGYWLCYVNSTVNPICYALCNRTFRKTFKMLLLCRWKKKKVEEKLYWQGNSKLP

[2] = target: Mu-type opioid receptor (Homo sapiens) (UniProt P35372); assay: Inhibition of mu opioid receptor (unknown origin) at 10 uM relative to control
[3] = target: Histamine H3 receptor (Homo sapiens) (UniProt Q9Y5N1); assay: Inhibition of histamine H3 receptor (unknown origin) at 10 uM relative to control
[4] = target: Sodium-dependent noradrenaline transporter (Homo sapiens) (UniProt P23975); assay: Inhibition of NET (unknown origin) at 10 uM relative to control
[5] = target: T2, D(4) dopamine receptor (Homo sapiens) (UniProt P21917); assay: Inhibition of dopaminergic D4 receptor (unknown origin) at 10 uM relative to control
T2 sequence (whole entry): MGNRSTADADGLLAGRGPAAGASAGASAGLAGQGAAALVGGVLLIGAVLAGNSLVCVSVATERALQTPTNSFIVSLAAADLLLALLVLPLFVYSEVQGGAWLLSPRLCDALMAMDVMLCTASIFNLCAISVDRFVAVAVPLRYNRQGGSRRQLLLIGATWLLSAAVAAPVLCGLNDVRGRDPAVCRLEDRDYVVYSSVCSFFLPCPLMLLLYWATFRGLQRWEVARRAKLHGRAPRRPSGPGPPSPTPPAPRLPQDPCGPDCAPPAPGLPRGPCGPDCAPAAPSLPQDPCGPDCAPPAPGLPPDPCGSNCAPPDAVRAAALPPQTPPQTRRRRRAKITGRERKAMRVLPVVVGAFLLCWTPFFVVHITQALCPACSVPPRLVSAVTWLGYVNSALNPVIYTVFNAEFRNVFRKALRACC

[6] = target: T3, Alpha-2B adrenergic receptor (Homo sapiens) (UniProt P18089); assay: Inhibition of adrenergic alpha-2B receptor (unknown origin) at 10 uM relative to control
T3 sequence (whole entry): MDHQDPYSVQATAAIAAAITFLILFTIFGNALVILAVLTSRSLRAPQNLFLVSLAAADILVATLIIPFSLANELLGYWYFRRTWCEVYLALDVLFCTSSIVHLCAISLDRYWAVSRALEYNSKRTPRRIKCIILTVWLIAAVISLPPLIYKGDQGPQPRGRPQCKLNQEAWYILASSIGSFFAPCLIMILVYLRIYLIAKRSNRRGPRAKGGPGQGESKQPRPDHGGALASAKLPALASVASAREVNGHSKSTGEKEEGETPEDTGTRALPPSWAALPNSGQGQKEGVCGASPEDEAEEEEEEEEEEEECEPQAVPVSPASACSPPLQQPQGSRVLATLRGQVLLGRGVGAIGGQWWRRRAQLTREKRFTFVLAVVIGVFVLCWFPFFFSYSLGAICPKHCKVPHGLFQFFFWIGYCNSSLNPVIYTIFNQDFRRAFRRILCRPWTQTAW

[7] = target: 5-hydroxytryptamine receptor 2A (Homo sapiens) (UniProt P28223); assay: Inhibition of 5-HT2A receptor (unknown origin) at 10 uM relative to control
[8] = target: D(1B) dopamine receptor (Homo sapiens) (UniProt P21918); assay: Inhibition of dopaminergic D5 receptor (unknown origin) at 10 uM relative to control
[9] = target: T4, 5-hydroxytryptamine receptor 2C (Homo sapiens) (UniProt P28335); assay: Inhibition of 5-HT2C receptor (unknown origin) at 10 uM relative to control
T4 sequence (whole entry): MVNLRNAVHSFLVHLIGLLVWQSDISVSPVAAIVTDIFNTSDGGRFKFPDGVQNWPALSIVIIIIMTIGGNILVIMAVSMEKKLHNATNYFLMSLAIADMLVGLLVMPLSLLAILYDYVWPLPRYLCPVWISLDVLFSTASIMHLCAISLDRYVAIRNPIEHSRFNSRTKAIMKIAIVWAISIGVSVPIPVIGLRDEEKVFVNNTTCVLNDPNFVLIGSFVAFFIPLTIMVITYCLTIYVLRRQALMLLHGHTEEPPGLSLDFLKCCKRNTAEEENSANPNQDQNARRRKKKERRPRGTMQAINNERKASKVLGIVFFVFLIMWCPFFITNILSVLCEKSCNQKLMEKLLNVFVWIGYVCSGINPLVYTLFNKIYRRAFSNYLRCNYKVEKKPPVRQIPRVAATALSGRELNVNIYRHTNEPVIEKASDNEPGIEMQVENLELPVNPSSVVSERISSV

[10] = target: Kappa-type opioid receptor (Homo sapiens) (UniProt P41145); assay: Inhibition of kappa opioid receptor (unknown origin) at 10 uM relative to control
[11] = target: T5, Muscarinic acetylcholine receptor M4 (Homo sapiens) (UniProt P08173); assay: Inhibition of muscarinergic M4 receptor (unknown origin) at 10 uM relative to control
T5 sequence (whole entry): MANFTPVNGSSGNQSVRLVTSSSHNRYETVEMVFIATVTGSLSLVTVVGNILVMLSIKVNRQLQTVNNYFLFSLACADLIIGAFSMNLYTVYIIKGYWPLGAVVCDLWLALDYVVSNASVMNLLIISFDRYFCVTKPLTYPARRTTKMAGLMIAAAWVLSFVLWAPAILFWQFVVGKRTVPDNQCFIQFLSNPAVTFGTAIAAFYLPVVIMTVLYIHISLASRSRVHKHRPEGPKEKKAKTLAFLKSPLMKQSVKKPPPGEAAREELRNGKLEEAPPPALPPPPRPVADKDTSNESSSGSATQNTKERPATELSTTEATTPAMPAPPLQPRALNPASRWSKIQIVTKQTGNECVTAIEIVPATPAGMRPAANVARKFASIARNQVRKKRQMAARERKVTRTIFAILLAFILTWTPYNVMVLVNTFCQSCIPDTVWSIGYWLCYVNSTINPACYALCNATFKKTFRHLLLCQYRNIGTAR

Sequence of 5-hydroxytryptamine receptor 2A (Homo sapiens) (P28223 whole entry): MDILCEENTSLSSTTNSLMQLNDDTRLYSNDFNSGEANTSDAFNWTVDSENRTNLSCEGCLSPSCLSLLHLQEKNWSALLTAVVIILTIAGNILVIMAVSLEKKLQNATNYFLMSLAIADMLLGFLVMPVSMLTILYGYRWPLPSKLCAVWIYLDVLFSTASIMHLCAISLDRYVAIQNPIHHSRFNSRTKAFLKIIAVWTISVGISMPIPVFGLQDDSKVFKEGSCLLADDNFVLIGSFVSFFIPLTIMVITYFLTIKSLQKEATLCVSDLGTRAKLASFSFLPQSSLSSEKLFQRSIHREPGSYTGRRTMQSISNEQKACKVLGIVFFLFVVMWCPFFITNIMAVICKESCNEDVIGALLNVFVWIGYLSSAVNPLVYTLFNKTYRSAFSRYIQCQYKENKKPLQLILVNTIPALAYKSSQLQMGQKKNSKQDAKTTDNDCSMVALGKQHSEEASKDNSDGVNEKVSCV
Sequence of D(1B) dopamine receptor (Homo sapiens) (P21918 whole entry): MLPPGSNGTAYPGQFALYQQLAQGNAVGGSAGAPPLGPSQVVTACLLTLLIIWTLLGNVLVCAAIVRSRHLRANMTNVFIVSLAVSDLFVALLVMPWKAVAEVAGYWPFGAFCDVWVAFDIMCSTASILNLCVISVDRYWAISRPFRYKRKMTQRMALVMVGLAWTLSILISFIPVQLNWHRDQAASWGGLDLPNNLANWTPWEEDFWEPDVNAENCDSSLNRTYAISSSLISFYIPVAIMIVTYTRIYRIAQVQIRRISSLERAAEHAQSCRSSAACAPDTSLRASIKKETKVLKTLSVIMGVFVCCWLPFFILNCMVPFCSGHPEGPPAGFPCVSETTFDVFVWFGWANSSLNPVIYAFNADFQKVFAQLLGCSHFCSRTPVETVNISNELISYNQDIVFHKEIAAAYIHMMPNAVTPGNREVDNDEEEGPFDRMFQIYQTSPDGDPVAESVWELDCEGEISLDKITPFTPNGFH
Sequence of Sodium-dependent noradrenaline transporter (Homo sapiens) (P23975 whole entry): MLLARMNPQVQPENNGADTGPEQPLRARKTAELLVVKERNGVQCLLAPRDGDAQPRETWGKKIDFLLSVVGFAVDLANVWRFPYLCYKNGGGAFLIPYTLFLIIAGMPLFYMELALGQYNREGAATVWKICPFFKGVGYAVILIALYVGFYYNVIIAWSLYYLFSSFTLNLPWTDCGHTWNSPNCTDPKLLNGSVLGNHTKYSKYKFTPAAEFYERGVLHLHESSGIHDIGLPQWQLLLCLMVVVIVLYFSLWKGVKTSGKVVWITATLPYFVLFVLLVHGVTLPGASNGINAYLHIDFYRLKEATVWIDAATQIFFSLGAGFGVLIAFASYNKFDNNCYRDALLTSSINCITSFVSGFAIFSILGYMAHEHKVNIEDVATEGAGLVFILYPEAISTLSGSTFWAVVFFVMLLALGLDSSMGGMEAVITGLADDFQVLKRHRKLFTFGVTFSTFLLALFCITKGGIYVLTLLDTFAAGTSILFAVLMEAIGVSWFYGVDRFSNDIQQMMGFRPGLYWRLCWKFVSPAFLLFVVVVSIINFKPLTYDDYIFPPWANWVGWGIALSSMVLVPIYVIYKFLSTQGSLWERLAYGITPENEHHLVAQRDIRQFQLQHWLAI
Sequence of Mu-type opioid receptor (Homo sapiens) (P35372 whole entry): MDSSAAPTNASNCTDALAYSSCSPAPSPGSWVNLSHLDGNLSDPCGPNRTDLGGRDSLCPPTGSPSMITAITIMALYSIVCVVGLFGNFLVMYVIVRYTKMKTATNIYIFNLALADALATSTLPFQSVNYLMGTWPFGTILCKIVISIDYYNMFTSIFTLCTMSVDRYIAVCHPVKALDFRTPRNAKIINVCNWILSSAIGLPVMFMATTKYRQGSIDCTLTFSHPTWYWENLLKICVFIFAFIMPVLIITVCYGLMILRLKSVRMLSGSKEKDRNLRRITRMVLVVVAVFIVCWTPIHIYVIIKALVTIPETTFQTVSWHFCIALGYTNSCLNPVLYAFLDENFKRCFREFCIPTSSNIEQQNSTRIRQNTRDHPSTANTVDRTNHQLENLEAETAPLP
Sequence of Histamine H3 receptor (Homo sapiens) (Q9Y5N1 whole entry): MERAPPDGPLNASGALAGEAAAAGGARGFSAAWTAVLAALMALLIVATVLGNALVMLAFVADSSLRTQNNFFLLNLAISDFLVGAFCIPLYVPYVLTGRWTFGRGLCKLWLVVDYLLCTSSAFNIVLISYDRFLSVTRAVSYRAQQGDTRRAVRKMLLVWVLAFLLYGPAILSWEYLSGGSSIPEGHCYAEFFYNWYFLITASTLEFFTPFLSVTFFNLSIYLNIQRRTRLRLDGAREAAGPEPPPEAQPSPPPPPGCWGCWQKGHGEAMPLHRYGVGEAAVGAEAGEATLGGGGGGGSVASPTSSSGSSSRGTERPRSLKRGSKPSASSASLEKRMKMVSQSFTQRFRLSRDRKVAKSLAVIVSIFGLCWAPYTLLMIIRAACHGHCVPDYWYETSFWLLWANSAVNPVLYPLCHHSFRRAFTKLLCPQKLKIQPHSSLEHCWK
Sequence of Kappa-type opioid receptor (Homo sapiens) (P41145 whole entry): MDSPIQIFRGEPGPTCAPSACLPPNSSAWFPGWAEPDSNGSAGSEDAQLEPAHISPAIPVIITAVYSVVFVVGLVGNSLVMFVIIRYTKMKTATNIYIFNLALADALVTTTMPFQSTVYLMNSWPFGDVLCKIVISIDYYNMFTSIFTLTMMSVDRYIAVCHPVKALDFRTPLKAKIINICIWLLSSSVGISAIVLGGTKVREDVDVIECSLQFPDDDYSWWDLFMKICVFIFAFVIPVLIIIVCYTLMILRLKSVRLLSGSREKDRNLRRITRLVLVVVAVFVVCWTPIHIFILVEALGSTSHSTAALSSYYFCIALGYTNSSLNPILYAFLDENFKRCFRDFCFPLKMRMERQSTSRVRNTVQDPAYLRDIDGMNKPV

Row | SMILES | inhibition [1] | inhibition [2] | inhibition [3] | inhibition [4] | inhibition [5] | inhibition [6] | inhibition [7] | inhibition [8] | inhibition [9] | inhibition [10] | inhibition [11]
1 | Cl.NCc1ccc(OCc2ccccc2)cc1 | -2.7% | -5.8% | 11.2% | 63.6% | 27.4% | 27.3% | 76.8% | 1.9% | 38.2% | 6% | –
2 | Cl.NCc1ccc(OCc2ccc(F)cc2)cc1 | 6.4% | -5.5% | 35% | 59.9% | 19.5% | 37% | 77.1% | 1% | 11.1% | 14.2% | 10.4%
3 | Cl.NCc1ccc(OCc2cccc(F)c2)cc1 | – | -8.6% | -2.8% | 76.1% | 9.9% | 51.3% | 88.6% | -0.5% | 41.2% | 1.3% | –
4 | Cl.NCc1ccc(OCc2ccccc2OC(F)(F)F)cc1 | 0.4% | -4.8% | 11.8% | 29.3% | 94.6% | 29.5% | 73.8% | 3.9% | 39.7% | 6.6% | 1.6%
5 | Cl.NCc1ccc(OCc2cccc(Cl)c2)cc1 | 17.7% | -2.2% | 19.3% | 83.9% | 79.4% | 72% | 88.2% | -1.6% | -4.3% | 13.9% | 0.2%
6 | Cl.NCc1ccc(OCc2ccccc2F)cc1 | -8.5% | – | -0.4% | 61.3% | 44% | 30.9% | 75.7% | 2.3% | 32.6% | 3.6% | -9%
7 | Cl.NCc1ccc(OCc2cccc(OC(F)(F)F)c2)cc1 | 0.8% | 2.8% | 21.7% | 58.5% | 22.1% | 44.3% | 88% | 0.4% | 33% | 9.8% | 4.3%
8 | Cl.NCc1ccc(OCc2ccc(OC(F)(F)F)cc2)cc1 | 1.7% | -5.6% | 21.1% | 60.1% | -0.2% | 49.9% | 94.7% | 3.5% | 4.2% | 2.6% | -4.7%
9 | Cl.NCc1ccc(OCc2ccc(Cl)cc2)cc1 | 13.6% | -2.3% | 35.3% | 64.7% | 24.7% | 51.6% | 92.6% | 6.4% | 13.2% | 16.6% | 3.5%
